Results as given in patent US6589771B1, “Methods for arousing dormant bacteria” (Immunom Technologies, Inc., priority 1999, dated 2003).

Tests used:
[1] = system: spores of the genera Bacillus and Clostridium; conditions: substance added to the buffer; neutral suspensions heated at 65° C. for 20 minutes; cited from earlier work
L. caseii [2] = test: Growth of dormant L. caseii on agar with antibiotic after sequential extractions; assay type: cell-based; conditions: for Growth in presence of 60 IU/mL ampicillin: PBS pH 7.3
Description: (§1) A culture containing 100% dormant bacteria was microfuged and the supernatant replaced with an equal volume of PBS, pH 7.3 and incubated at 37° C. After 20 minutes, the pellet was again recovered by centrifugation and resuspended in fresh PBS.
A 2 year old dormant broth culture of L. caseii was centrifuged and the supernatant replaced with an equal volume of Dulbeccos' PBS, 1× or 4× at pH 7.3, or water for 20 min. followed by different periods of adjustment at 37° C.

L. monocytogenes [3] = test: Dialysis plus dilution of dormant L. monocytogenes, growth in presence of antibiotic; assay type: cell-based; conditions: 18 hrs. adjustment period
Description: An aliqout of culture was dialyzed against 250 volumes of PBS, pH 7.3 at 37° C. with stirring for 40 min. After an adjustment period of 18 hrs., the retentate was diluted serially 1:5 in PBS, pH 7.3, and streaked on agar.

P. aeruginosa = test: Growth of duplex culture of P. aeruginosa with antibiotic after sequential extractions; assay type: cell-based; conditions: Dulbecco's PBS pH 7.3
Description: Separate cultures containing both dormant and vegetative cells of P. aeruginosa or E. coli were centrifuged and the pellets resuspended in an equal amount of Dulbecco's PBS pH 7.3 for serial extractions of 20 min. followed by different periods of adjustment at 37° C.

L. caseii [4] = test: Dialysis plus dilution of dormant L. caseii, growth in presence of antibiotic; assay type: cell-based; conditions: for Growth in presence of 60 IU Amp/mL: dialysis, 18 hrs. adjustment period
L. monocytogenes [5] = test: L. monocytogenes arousal by serial dilutions in PBS, growth on antibiotic agar; assay type: cell-based; conditions: PBS pH 7.3
L. monocytogenes [6] = test: Antibiotic tolerance of vegetative and aroused dormant L. monocytogenes (classification); assay type: cell-based; conditions: both native vegetative and aroused dormant cells
L. monocytogenes [7] = test: Growth (CFUs/mL or grow-out hrs.) of dormant L. monocytogenes on agar with antibiotic after sequential PBS extractions; assay type: cell-based; conditions: for Growth in presence of ampicillin: PBS pH 7.3
Description: as §1
A 4 year old dormant broth culture of L. monocytogenes was centrifuged and the supernatant replaced with an equal volume of Dulbecco's PBS, 1×, 4×, or 10×, pH 7.3 or 6.1 for 10, 20, or 40 min. extraction periods, followed by different periods of adjustment at 37° C. This was repeated and the pellets held for various times in buffer (adjustment period) before plating on agar. Inoculated agars were held at 37° C. for various lengths of time (grow-out period).

L. plantarum ATCC 14917 = test: Dialysis of dormant L. plantarum ATCC 14917, tolerance to antibiotic; assay type: cell-based; conditions: retentate after four changes of 250 volumes of PBS, 44 hrs. of dialysis, no adjustment period
S. aureus = test: Vancomycin tolerance of aroused dormant and vegetative S. aureus; assay type: cell-based; conditions: aroused dormant forms after heat-killing of vegetative forms
Text: Dormant cells of S. aureus could be enumerated and classified in the presence of their vegetative forms by heat-killing the sensitive vegetative forms while preserving the more resistant dormant forms. […] Before heating, 4×10^7 CFUs/mL were viable, after heating, no viable cells were detected until the dormant cells were aroused by osmolal downshift gradients.

[8] = dilution after adjustment 1:125
[9] = dilution after adjustment: None

SMILES: C[C@H](N)C(=O)O [L-alanine]
- spores that germinate [1]: 100%

SMILES: N[C@@H](Cc1ccc(O)cc1)C(=O)O [L-tyrosine]
- spores that germinate [1]: 100%

SMILES: Nc1ncnc2c1ncn2[C@@H]1O[C@H](CO)[C@@H](O)[C@H]1O [adenosine]
- spores that germinate [1]: 100%

SMILES: CC1(C)S[C@@H]2[C@H](NC(=O)[C@H](N)c3ccccc3)C(=O)N2[C@H]1C(=O)O [ampicillin]
- Growth in presence of 60 IU amp/mL (L. caseii [2]; L. caseii ATCC 393, Dulbecco's PBS pH 7.3, 7 × 20 min., adjustment time 144 hrs.): 48 h
- Growth in presence of 60 IU/mL ampicillin (L. caseii [2]; 1st-5th 20 min. extraction): 0 CFUs/mL
- Growth in presence of 60 IU/mL ampicillin (L. caseii [2]; 6th 20 min. + 72 hrs. @ 37° C.): 0 CFUs/mL
- Growth in presence of 60 IU/mL ampicillin (L. caseii [2]; 6th 20 min. + 96 hrs. @ 37° C.): 0 CFUs/mL
- Growth in presence of 60 IU/mL ampicillin (L. caseii [2]; Control (no extraction)): 0 CFUs/mL
- Growth in presence of 60 IU Amp/mL (L. monocytogenes [3]; dilution after adjustment 1:5): 10^4 CFUs/mL
- Growth in presence of 60 IU Amp/mL (L. monocytogenes [3]; dilution after adjustment 1:25): 10^5 CFUs/mL
- Growth in presence of 60 IU Amp/mL (L. monocytogenes [3]; [8]): 10^5 CFUs/mL
- Growth in presence of 60 IU Amp/mL (L. monocytogenes [3]; [9]): 10^3 CFUs/mL
- Growth in presence of 60 IU amp/mL (P. aeruginosa; 3 × 20 min., adjustment time 24 hrs.): 72 h
- Growth in presence of 60 IU amp/mL (P. aeruginosa; 6 × 20 min., adjustment time 0 hrs.): 48 h
- Tolerance to ampicillin (L. caseii [4]; L. caseii ATCC 393 aroused by dialysis pH 7.3, dilutions 1:5 and 1:5, adjustment period 124 hours at 37° C.): not tolerant
- Growth in presence of 60 IU Amp/mL (L. caseii [4]; dilution after adjustment 1:5): 0 CFUs/mL
- Growth in presence of 60 IU Amp/mL (L. caseii [4]; dilution after adjustment 1:25): 0 CFUs/mL
- Growth in presence of 60 IU Amp/mL (L. caseii [4]; [8]): 0 CFUs/mL
- Growth in presence of 60 IU Amp/mL (L. caseii [4]; [9]): 0 CFUs/mL
- Periods of adjustment required for growth on: 60 IU Amp (L. monocytogenes [5]; serial dilutions 1:10): 144 h
- Periods of adjustment required for growth on: 60 IU Amp (L. monocytogenes [5]; serial dilutions 1:100): 144 h
- Periods of adjustment required for growth on: 60 IU Amp (L. monocytogenes [5]; serial dilutions 1:125): 144 h
- Periods of adjustment required for growth on: 60 IU Amp (L. monocytogenes [5]; serial dilutions 1:1000): 144 h
- Tolerance to 60 IU of ampicillin per mL (L. monocytogenes [6]): tolerant
- Growth in presence of 60 IU amp/mL (L. monocytogenes [7]; Dulbecco's 4X PBS pH 7.3, 3 × 20 min., adjustment time 48 hrs.): 24 h
- Growth in presence of 60 IU amp/mL (L. monocytogenes [7]; Dulbecco's 4X PBS pH 7.3, 3 × 20 min., adjustment time 72 hrs.): 24 h
- Growth in presence of 60 IU amp/mL (L. monocytogenes [7]; Dulbecco's 10X PBS pH 7.3, 3 × 20 min., adjustment time 48 hrs.): 24 h
- Growth in presence of 60 IU amp/mL (L. monocytogenes [7]; Dulbecco's 10X PBS pH 7.3, 3 × 20 min., adjustment time 72 hrs.): 24 h
- Growth in presence of 60 IU amp/mL (L. monocytogenes [7]; Dulbecco's PBS pH 6.1, 5 × 20 min., adjustment time 120 hrs.): 24 h
- Growth in presence of 60 IU amp/mL (L. monocytogenes [7]; Dulbecco's PBS pH 6.1, 7 × 20 min., adjustment time 96 hrs.): 24 h
- Growth in presence of 60 IU amp/mL (L. monocytogenes [7]; Dulbecco's PBS pH 7.3, 1 × 20 min., adjustment time 0 hrs.): 48 h
- Growth in presence of 60 IU amp/mL (L. monocytogenes [7]; Dulbecco's PBS pH 7.3, 3 × 20 min., adjustment time 0 hrs.): 48 h
- Growth in presence of 60 IU amp/mL (L. monocytogenes [7]; Dulbecco's PBS pH 7.3, 3 × 20 min., adjustment time 48 hrs.): 48 h
- Growth in presence of 60 IU amp/mL (L. monocytogenes [7]; Dulbecco's PBS pH 7.3, 3 × 20 min., adjustment time 72 hrs.): 48 h
- Growth in presence of 60 IU amp/mL (L. monocytogenes [7]; Dulbecco's PBS pH 7.3, 3 × 40 min., adjustment time 96 hrs.): 24 h
- Growth in presence of 60 IU amp/mL (L. monocytogenes [7]; Dulbecco's PBS pH 7.3, 5 × 10 min., adjustment time 96 hrs.): 24 h
- Growth in presence of 60 IU amp/mL (L. monocytogenes [7]; Dulbecco's PBS pH 7.3, 6 × 10 min., adjustment time 0 hrs.): 48 h
- Growth in presence of 60 IU amp/mL (L. monocytogenes [7]; Dulbecco's PBS pH 7.3, 6 × 20 min., adjustment time 0 hrs.): 48 h
- Growth in presence of 60 IU amp/mL (L. monocytogenes [7]; Dulbecco's PBS pH 7.3, 6 × 20 min., adjustment time 48 hrs.): 48 h
- Growth in presence of 60 IU amp/mL (L. monocytogenes [7]; Dulbecco's PBS pH 7.3, 6 × 20 min., adjustment time 72 hrs.): 48 h
- Growth in presence of 60 IU amp/mL (L. monocytogenes [7]; Dulbecco's PBS pH 7.3, 7 × 40 min., adjustment time 96 hrs.): 48 h
- Growth in presence of 60 IU amp/mL (L. monocytogenes [7]; Dulbecco's PBS pH 7.3, 9 × 20 min., adjustment time 0 hrs.): 48 h
- Growth in presence of 60 IU amp/mL (L. monocytogenes [7]; Dulbecco's PBS pH 7.3, 9 × 20 min., adjustment time 48 hrs.): 48 h
- Growth in presence of 60 IU amp/mL (L. monocytogenes [7]; Dulbecco's PBS pH 7.3, 9 × 20 min., adjustment time 72 hrs.): 48 h
- Growth in presence of ampicillin (L. monocytogenes [7]; 1st 20 min. extraction): 10^4 CFUs/mL
- Growth in presence of ampicillin (L. monocytogenes [7]; 2nd 20 min. extraction): 10^4 CFUs/mL
- Growth in presence of ampicillin (L. monocytogenes [7]; 3rd 20 min. extraction): 10^4 CFUs/mL
- Growth in presence of ampicillin (L. monocytogenes [7]; 4th 20 min. extraction): 10^5 CFUs/mL
- Growth in presence of ampicillin (L. monocytogenes [7]; 5th 20 min. extraction): 10^5 CFUs/mL
- Growth in presence of ampicillin (L. monocytogenes [7]; 6th 20 min. extraction): 10^5 CFUs/mL
- Growth in presence of ampicillin (L. monocytogenes [7]; Control (no extraction)): 0 CFUs/mL
- Tolerance to ampicillin (L. plantarum ATCC 14917): not tolerant

SMILES: CN(C)[C@@H]1C(O)=C(C(N)=O)C(=O)[C@@]2(O)C(O)=C3C(=O)c4c(O)cccc4[C@@](C)(O)[C@H]3C[C@@H]12 [tetracycline]
- Periods of adjustment required for growth on: 30 μg TC (L. monocytogenes [5]; serial dilutions 1:10): 144 h
- Periods of adjustment required for growth on: 30 μg TC (L. monocytogenes [5]; serial dilutions 1:100): 144 h
- Periods of adjustment required for growth on: 30 μg TC (L. monocytogenes [5]; serial dilutions 1:1000): 144 h

SMILES: CN[C@H](CC(C)C)C(=O)N[C@H]1C(=O)N[C@@H](CC(N)=O)C(=O)N[C@H]2C(=O)N[C@H]3C(=O)N[C@H](C(=O)N[C@H](C(=O)O)c4cc(O)cc(O)c4-c4cc3ccc4O)[C@H](O)c3ccc(c(Cl)c3)Oc3cc2cc(c3O[C@@H]2O[C@H](CO)[C@@H](O)[C@H](O)[C@H]2O[C@H]2C[C@](C)(N)[C@H](O)[C@H](C)O2)Oc2ccc(cc2Cl)[C@H]1O [vancomycin]
- Tolerance to 30 μg vancomycin/mL (S. aureus): showed tolerance
